From patent US20240238424A1, “HETEROBIFUNCTIONAL COMPOUNDS AND METHODS OF TREATING DISEASE” (Halda Therapeutics OpCo, Inc., priority 2021, published 2024) come the findings set out here.

The target of the experiment is T1, GSPT1 (Homo sapiens, UniProt P15170+Q96SW2).
T1 construct: host or cells: HEK293 LgBiT cell line
In words: GSPT1 HiBit degradation assay. The experiment is classed as cell-based. Particulars: HEK293 LgBiT cells expressing GSPT1_HiBiT, luminescence after 6 hours. An excerpt: Promega developed a HEK293 cell line that constitutively expresses LgBiT protein and GSPT1_HiBiT fusion protein. When both proteins are present, the HiBiT portion of the fusion protein combines with LgBiT protein to form a functional luciferase enzyme. Endurazine, a cell permeable small molecule, is converted by cellular esterases into furimazine, which the luciferase enzyme uses as a substrate to generate luminescence. When GSPT1 is degraded, the HiBit is also degraded. This prevents formation of fully functional luciferase, leading to a loss in luminescence. GSPT1 degradation therefore correlates with a decrease in luminescence and can be measured continuously over time. The concentration of compound at which 50% GSPT1 degradation occurs (DC50) was calculated using this system.
• HEK293 LgBiT Cell line (Promega Custom) • Endurazine Substrate (Promega Cat. #N2570) • DMEM (Gibco Cat. #11995) • Penicillin/Streptomycin (Gibco Cat. #15140-122) • Heat Inactivated Fetal Bovine Serum (Gibco Cat. #A38400-01) • Hygromycin B (Gibco Cat. #10-687-010) • 384 Well TC Treated White Microplate (Perkin Elmer Cat. #6007680)
HEK293 LgBiT cells were cultured in DMEM Media supplemented with 10% FBS, 5% Pen/Strep, 200 μg/ml hygromycin and stored in an incubator set at 37° C. and 5% CO2. 18-24 hours prior to compound treatment, HEK293 LgBiT cells were seeded at 1000 cells/well in a 384-well microplate in 25 μl complete media. The plate was spun at 300 g for 30 seconds and stored in the incubator overnight. The next day, compounds were titrated in DMSO and added to media supplemented with endurazine substrate. A 25 ul aliquot of 2× compound/endurazine in media were then added to the 384-well microplate with seeded cells. (Endurazine was used at a final concentration of 0.5×). The plate was spun at 300 g for 30 seconds and stored in the incubator. After 6 hours the plate was read on a Perkin Elmer MultiMode Plate Reader Envision 2105 to measure luminescence signal.

T1 sequence (P15170 whole entry): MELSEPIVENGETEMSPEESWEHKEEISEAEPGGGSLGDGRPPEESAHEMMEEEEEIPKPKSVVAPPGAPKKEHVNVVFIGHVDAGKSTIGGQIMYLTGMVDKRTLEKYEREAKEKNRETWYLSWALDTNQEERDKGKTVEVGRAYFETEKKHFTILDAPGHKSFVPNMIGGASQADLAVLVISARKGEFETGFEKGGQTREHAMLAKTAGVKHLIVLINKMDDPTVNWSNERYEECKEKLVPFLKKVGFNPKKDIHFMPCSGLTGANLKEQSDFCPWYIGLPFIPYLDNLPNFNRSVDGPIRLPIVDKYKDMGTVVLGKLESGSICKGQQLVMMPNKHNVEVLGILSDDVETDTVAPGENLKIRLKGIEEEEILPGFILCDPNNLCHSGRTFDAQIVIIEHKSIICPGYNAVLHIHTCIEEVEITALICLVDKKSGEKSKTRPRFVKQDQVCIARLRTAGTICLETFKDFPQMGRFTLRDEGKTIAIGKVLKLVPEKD
T1 sequence (Q96SW2 whole entry): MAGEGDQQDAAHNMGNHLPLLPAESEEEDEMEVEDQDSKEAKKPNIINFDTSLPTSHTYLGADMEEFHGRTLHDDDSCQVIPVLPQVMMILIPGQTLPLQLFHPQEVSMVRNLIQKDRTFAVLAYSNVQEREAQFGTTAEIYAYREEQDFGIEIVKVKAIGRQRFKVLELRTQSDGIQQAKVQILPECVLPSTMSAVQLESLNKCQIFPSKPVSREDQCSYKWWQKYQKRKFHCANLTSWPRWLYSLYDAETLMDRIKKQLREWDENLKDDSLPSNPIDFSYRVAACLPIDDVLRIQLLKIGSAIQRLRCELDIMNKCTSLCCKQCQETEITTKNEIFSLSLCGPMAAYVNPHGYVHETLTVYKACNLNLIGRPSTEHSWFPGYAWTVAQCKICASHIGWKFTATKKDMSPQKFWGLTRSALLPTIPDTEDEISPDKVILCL
T1 sequence (Q16531 whole entry partner): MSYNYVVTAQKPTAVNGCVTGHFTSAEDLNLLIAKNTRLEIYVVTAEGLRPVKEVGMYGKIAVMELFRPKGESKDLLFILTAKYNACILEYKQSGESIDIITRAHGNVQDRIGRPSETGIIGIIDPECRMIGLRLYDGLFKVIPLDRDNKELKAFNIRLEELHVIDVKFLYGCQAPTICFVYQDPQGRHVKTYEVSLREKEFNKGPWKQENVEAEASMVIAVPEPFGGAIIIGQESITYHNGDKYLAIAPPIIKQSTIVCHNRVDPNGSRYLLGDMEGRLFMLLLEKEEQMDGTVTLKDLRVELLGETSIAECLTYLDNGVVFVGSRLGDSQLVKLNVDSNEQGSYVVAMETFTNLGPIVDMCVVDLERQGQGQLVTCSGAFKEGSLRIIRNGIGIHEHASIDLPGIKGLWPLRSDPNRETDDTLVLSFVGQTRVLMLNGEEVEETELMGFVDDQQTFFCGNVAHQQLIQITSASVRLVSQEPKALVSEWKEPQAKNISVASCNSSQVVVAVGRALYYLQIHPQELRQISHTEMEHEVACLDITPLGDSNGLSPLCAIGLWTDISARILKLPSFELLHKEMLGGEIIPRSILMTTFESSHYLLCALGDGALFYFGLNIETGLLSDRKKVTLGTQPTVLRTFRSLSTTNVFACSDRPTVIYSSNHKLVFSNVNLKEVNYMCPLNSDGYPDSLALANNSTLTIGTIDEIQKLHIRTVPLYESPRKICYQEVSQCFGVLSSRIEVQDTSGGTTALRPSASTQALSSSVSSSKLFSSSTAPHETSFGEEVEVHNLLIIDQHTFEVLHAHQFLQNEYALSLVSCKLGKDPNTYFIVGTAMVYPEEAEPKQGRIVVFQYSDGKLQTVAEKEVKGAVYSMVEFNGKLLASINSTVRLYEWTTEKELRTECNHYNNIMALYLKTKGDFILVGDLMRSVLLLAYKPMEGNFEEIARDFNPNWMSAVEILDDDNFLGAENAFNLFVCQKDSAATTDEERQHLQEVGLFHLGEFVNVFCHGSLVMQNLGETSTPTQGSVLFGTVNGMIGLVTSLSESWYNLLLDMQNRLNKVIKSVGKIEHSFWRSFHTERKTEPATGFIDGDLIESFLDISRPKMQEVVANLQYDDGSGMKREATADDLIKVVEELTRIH

For the compound `Cc1c(CC(=O)N(C)C)ccc(NC(=O)c2nn([C@@H]3CCCN(C(=O)/C=C/CN(C)CCOCCOCCOCCOCCOCCOCCc4cc(Cl)cc(NC(=O)NCc5ccc6c(c5)CN(C5CCC(=O)NC5=O)C6=O)c4)C3)c3ncnc(N)c23)c1C` (stereo partly drawn) [Compound I-23, 4-amino-1-[(3R)-1-[(E)-4-[2-[2-[2-[2-[2-[2-[2-[3-chloro-5-[[2-(2,6-dioxo-3-piperidyl)-1-oxo-isoindolin-5-yl]methylcarbamoylamino]phenyl]ethoxy]ethoxy]ethoxy]ethoxy]ethoxy]ethoxy]ethyl-methyl-amino]but-2-enoyl]-3-piperidyl]-N-[4-[2-(dimethylamino)-2-oxo-ethyl]-2,3-dimethyl-phenyl]pyrazolo [3,4-d]pyrimidine-3-carboxamide], the DC50 (Table 3A) was more than 10 µM. In turn, `COc1cc(N2CCN(C(=O)COCCOCCOCCOCCOCCOCCOCCOCCOCCOCCOc3cc(Cl)cc(NC(=O)NCc4ccc5c(c4)CN(C4CCC(=O)NC4=O)C5=O)c3)CC2)ccc1Nc1ncc(Cl)c(Nc2ccccc2P(C)(C)=O)n1` (stereo not drawn) [Compound I-24, 1-[3-chloro-5-[2-[2-[2-[2-[2-[2-[2-[2-[2-[2-[2-[4-[4-[[5-chloro-4-(2-dimethylphosphorylanilino)pyrimidin-2-yl]amino]-3-methoxy-phenyl]piperazin-1-yl]-2-oxo-ethoxy]ethoxy]ethoxy]ethoxy]ethoxy]ethoxy]ethoxy]ethoxy]ethoxy]ethoxy]ethoxy]phenyl]-3-[[2-(2,6-dioxo-3-piperidyl)-1-oxo-isoindolin-5-yl]methyl]urea] showed a DC50 (Table 3A) of more than 10 µM. The same measure, in the same setting: the result for `COc1cc(N2CCN(C(=O)COCCOCCOCCOCCOCCOCCOc3cc(Cl)cc(NC(=O)NCc4ccc5c(c4)CN(C4CCC(=O)NC4=O)C5=O)c3)CC2)ccc1Nc1ncc(Cl)c(Nc2ccccc2P(C)(C)=O)n1` (stereo not drawn) [Compound I-25] reads more than 10 µM. Turning to `COc1cc(N2CCN(C(=O)COCCOCCOCCOCCOCCOCCOCCOCCOc3cc(Cl)cc(NC(=O)NCc4ccc5c(c4)CN(C4CCC(=O)NC4=O)C5=O)c3)CC2)ccc1Nc1ncc(Cl)c(Nc2ccccc2P(C)(C)=O)n1` (stereo not drawn) [Compound I-26], for the setting “Table 3”, the DC50 was more than 10 µM. Same read-out and setting: the result for `COc1cc(N2CCN(C(=O)COCCOCCOCCOCCOCCOCCOCCOCCc3cc(Cl)cc(NC(=O)NCc4ccc5c(c4)CN(C4CCC(=O)NC4=O)C5=O)c3)CC2)ccc1Nc1ncc(Cl)c(Nc2ccccc2P(C)(C)=O)n1` (stereo not drawn) [Compound I-27] reads 5 to 10 µM; that for `CC1(C)[C@H](NC(=O)c2ccc(OCCOCCOCCOCCOCCOCCOCCOCCOCCc3cc(Cl)cc(NC(=O)NCc4ccc5c(c4)CN(C4CCC(=O)NC4=O)C5=O)c3)cc2)C(C)(C)[C@H]1Oc1ccc(C#N)c(Cl)c1` (stereo partly drawn) [Compound I-28], 0.25 to 5 µM; that for `CC1(C)[C@H](NC(=O)c2ccc(OCCOCCOCCOCCOCCOCCOCCOCCOCCOCCOCCc3cc(Cl)cc(NC(=O)NCc4ccc5c(c4)CN(C4CCC(=O)NC4=O)C5=O)c3)cc2)C(C)(C)[C@H]1Oc1ccc(C#N)c(Cl)c1` (stereo partly drawn) [Compound I-29], 0.25 to 5 µM. Same read-out and setting: the result for `C=CC(=O)Nc1cc(Nc2nccc(-c3cn(C)c4ccccc34)n2)c(OC)cc1N(C)CCN(C)CCOCCOCCOCCOCCOCCOCCOc1cc(Cl)cc(NC(=O)NCc2ccc3c(c2)CN(C2CCC(=O)NC2=O)C3=O)c1` (stereo not drawn) [Compound I-33] reads 5 to 10 µM; that for `C=CC(=O)Nc1cc(Nc2nccc(-c3cn(C)c4ccccc34)n2)c(OC)cc1N(C)CCN(C)CCOCCOCCOCCOCCOCCOCCc1cc(Cl)cc(NC(=O)NCc2ccc3c(c2)CN(C2CCC(=O)NC2=O)C3=O)c1` (stereo not drawn) [Compound I-34], 5 to 10 µM; that for `C=CC(=O)Nc1cc(Nc2nccc(-c3cn(C)c4ccccc34)n2)c(OC)cc1N(C)CCN(C)CCOCCOCCOCCOCCOCCOCCOCCOCCc1cc(Cl)cc(NC(=O)NCc2ccc3c(c2)CN(C2CCC(=O)NC2=O)C3=O)c1` (stereo not drawn) [Compound I-35], more than 10 µM. Same read-out and setting: the result for `C=CC(=O)Nc1cc(Nc2nccc(-c3cn(C)c4ccccc34)n2)c(OC)cc1N(C)CCN(C)CCOCCOCCOCCOCCOCCOCCOCCOCCOCCOCCc1cc(Cl)cc(NC(=O)NCc2ccc3c(c2)CN(C2CCC(=O)NC2=O)C3=O)c1` (stereo not drawn) [Compound I-36] reads 5 to 10 µM.

Turning to `COc1cc(N2CCN(C(=O)COCCOCCOCCOCCOCCOCCOCCOCCOCCOCCc3cc(Cl)cc(NC(=O)NCc4ccc5c(c4)CN(C4CCC(=O)NC4=O)C5=O)c3)CC2)ccc1Nc1ncc(Cl)c(Nc2ccccc2P(C)(C)=O)n1` (stereo not drawn) [Compound I-45], the DC50 (Table 3) is 5 to 10 µM.

In turn, `CCN(CCOCCOCCOCCOCCOCCOCCCCCCCCc1cc(Cl)cc(NC(=O)NCc2ccc3c(c2)CN(C2CCC(=O)NC2=O)C3=O)c1)CCOc1ccc(C(=O)c2c(-c3ccc(O)cc3)sc3cc(O)ccc23)cc1` (stereo not drawn) [Compound I-55] returned a DC50 (Table 3) of less than 0.25 µM. The same measure, in the same setting: to `CCN(CCOCCOCCOCCOCCOCCOCCCCCCCCCCCCCCc1cc(Cl)cc(NC(=O)NCc2ccc3c(c2)CN(C2CCC(=O)NC2=O)C3=O)c1)CCOc1ccc(C(=O)c2c(-c3ccc(O)cc3)sc3cc(O)ccc23)cc1` (stereo not drawn) [Compound I-56] belongs more than 10 µM; to `C=CC(=O)Nc1cc(Nc2nccc(-c3cn(C)c4ccccc34)n2)c(OC)cc1N(C)CCN(C)CCOCCOCCOCCOCCOCCOCCOCCOCCOc1cc(Cl)cc(NC(=O)NCc2ccc3c(c2)CN(C2CCC(=O)NC2=O)C3=O)c1` (stereo not drawn) [Compound I-57], more than 10 µM.

`CCN(CCCCCCCCc1cc(Cl)cc(NC(=O)NCc2ccc3c(c2)CN(C2CCC(=O)NC2=O)C3=O)c1)CCOc1ccc(C(=O)c2c(-c3ccc(O)cc3)sc3cc(O)ccc23)cc1` (stereo not drawn) [Compound I-58] showed a DC50 (Table 3) of less than 0.25 µM. Same read-out and setting: the result for `CCN(CCOCCOCCOCCOCCCCCCCCCCCCCCc1cc(Cl)cc(NC(=O)NCc2ccc3c(c2)CN(C2CCC(=O)NC2=O)C3=O)c1)CCOc1ccc(C(=O)c2c(-c3ccc(O)cc3)sc3cc(O)ccc23)cc1` (stereo not drawn) [Compound I-59] reads 0.25 to 5 µM; that for `C=CC(=O)Nc1cc(Nc2nccc(-c3cn(C)c4ccccc34)n2)c(OC)cc1N(C)CCN(C)CCOCCOCCOCCOCCOCCOCCOCCOCCOCCOCCOc1cc(Cl)cc(NC(=O)NCc2ccc3c(c2)CN(C2CCC(=O)NC2=O)C3=O)c1` (stereo not drawn) [Compound I-60], 5 to 10 µM; that for `C=CC(=O)Nc1cc(Nc2nccc(-c3cn(C)c4ccccc34)n2)c(OC)cc1N(C)CCN(C)CCOCCOCCOCCOCCCCCCCCc1cc(Cl)cc(NC(=O)NCc2ccc3c(c2)CN(C2CCC(=O)NC2=O)C3=O)c1` (stereo not drawn) [Compound I-61], less than 0.25 µM. Same read-out and setting: to `C=CC(=O)Nc1cc(Nc2nccc(-c3cn(C)c4ccccc34)n2)c(OC)cc1N(C)CCN(C)CCOCCOCCOCCOCCOCCOCCCCCCCCc1cc(Cl)cc(NC(=O)NCc2ccc3c(c2)CN(C2CCC(=O)NC2=O)C3=O)c1` (stereo not drawn) [Compound I-62] belongs less than 0.25 µM; to `C=CC(=O)Nc1cc(Nc2nccc(-c3cn(C)c4ccccc34)n2)c(OC)cc1N(C)CCN(C)CCOCCOCCOCCOCCOCCOCCOCCOCCOCCOCCCCCCCCc1cc(Cl)cc(NC(=O)NCc2ccc3c(c2)CN(C2CCC(=O)NC2=O)C3=O)c1` (stereo not drawn) [Compound I-63], less than 0.25 µM; to `Cc1c(CC(=O)N(C)C)ccc(NC(=O)c2nn([C@H]3CCCN(C(=O)/C=C/CN(C)CCOCCOCCOCCOCCCCCCCCc4cc(Cl)cc(NC(=O)NCc5ccc6c(c5)CN(C5CCC(=O)NC5=O)C6=O)c4)C3)c3ncnc(N)c23)c1C` (stereo partly drawn) [Compound I-64], less than 0.25 µM. The same measure, in the same setting: to `Cc1c(CC(=O)N(C)C)ccc(NC(=O)c2nn(C3CCCN(C(=O)/C=C/CN(C)CCOCCOCCOCCOCCOCCOCCCCCCCCc4cc(Cl)cc(NC(=O)NCc5ccc6c(c5)CN(C5CCC(=O)NC5=O)C6=O)c4)C3)c3ncnc(N)c23)c1C` (stereo not drawn) [Compound I-65] belongs less than 0.25 µM; to `Cc1c(CC(=O)N(C)C)ccc(NC(=O)c2nn([C@H]3CCCN(C(=O)/C=C/CN(C)CCOCCOCCOCCOCCOCCOCCOCCOCCOCCOCCCCCCCCc4cc(Cl)cc(NC(=O)NCc5ccc6c(c5)CN(C5CCC(=O)NC5=O)C6=O)c4)C3)c3ncnc(N)c23)c1C` (stereo partly drawn) [Compound I-66], 0.25 to 5 µM. In turn, `C=CC(=O)Nc1cc(Nc2nccc(-c3cn(C)c4ccccc34)n2)c(OC)cc1N(C)CCN(C)CCOCCOCCOCCOCCOCCOCCOCCOCCCCCCCCc1cc(Cl)cc(NC(=O)NCc2ccc3c(c2)CN(C2CCC(=O)NC2=O)C3=O)c1` (stereo not drawn) [Compound I-68] came in with a DC50 (Table 3) of less than 0.25 µM. On to `Cc1c(CC(=O)N(C)C)ccc(NC(=O)c2nn([C@@H]3CCCN(C(=O)/C=C/CN(C)CCOCCOCCOCCOCCOCCOCCOCCOCCCCCCCCc4cc(Cl)cc(NC(=O)NCc5ccc6c(c5)CN(C5CCC(=O)NC5=O)C6=O)c4)C3)c3ncnc(N)c23)c1C` (stereo partly drawn) [Compound I-69], for which, for the setting “Table 3”, the DC50 is less than 0.25 µM.

The compound `C=C(F)C(=O)N1CCN(c2nc(OC[C@@H]3CCCN3CCCOCCOCCOCCOCCCCCCCCc3cc(Cl)cc(NC(=O)NCc4ccc5c(c4)CN(C4CCC(=O)NC4=O)C5=O)c3)nc3c2CCN(c2cccc4cccc(Cl)c24)C3)C[C@@H]1CC#N` (stereo partly drawn) [Compound I-70] gave a DC50 (Table 3) of less than 0.25 µM.
